Source: patent US20260053778A1, “USE OF NOVEL PPAR ACTIVITY MODULATOR FOR PREVENTION, AMELIORATION OR TREATMENT OF DEGENERATIVE BRAIN DISEASES” (POSTECH RESEARCH AND BUSINESS DEVELOPMENT FOUNDATION, priority 2022, published 2026)

Tests used:
[1] = test system: RAW 264.7 cell line; assay: Cell viability assay (MTT), RAW 264.7; type: cell-based; conditions: RAW 264.7, 48 h, at higher concentrations
Description: Cell viability was measured by a chromogenic assay that biologically reduces 3-(4,5-dimethyl-thiazol-2-yl)-2,5-diphenyltetrazolium bromide (MTT) to formazan in living cells. Briefly, cells were cultured in 96-well plates in a final volume of 100 μL. After 24 h, the culture medium was replaced with fresh medium containing DTMB compound, and the cells were cultured for another 48 h. Next, MTT (dissolved in PBS at 5 mg/mL) was added to the culture medium. The cells were cultured in the dark at 37° C. for 1 h, and then the supernatant was removed from the wells. The formazan crystals were dissolved by adding total MTT solvent (4 mM HCl and 0.1% Nonidet P-40, both dissolved in isopropanol), and the absorbance was measured at 570 nm using a microplate reader, Infinite 200 Pro NanoQuant microplate reader (TECAN, Switzerland).

[2] = test system: primary microglia isolated from mouse; assay: Cytokine ELISA in primary microglia; type: cell-based; conditions: primary microglia treated with LPS or Aβ aggregates, DTMB 24 h
Description: To confirm a more clear anti-inflammatory effect, the microglia cell line (BV2) and microglia isolated from mice were treated with lipopolysaccharide (LPS) and Aβ aggregates to induce an inflammatory response, and then DTMB was treated to measure the decrease in cytokine levels in microglia by DTMB treatment using ELISA.
Primary microglial culture was performed as described in the literature [Lian H, Roy E, Zheng H. Protocol for primary microglial culture preparation. Bio-protocol. 2016; 6(21)]. Postnatal day 3 mice were used for primary microglial cell preparation. Newborn mouse pups were anesthetized on ice and then sacrificed. The isolated cortex and hippocampus were collected after removing the meninges. The brain tissues were dissociated by incubation with trypsin (2.5%) in HBSS (Gibco, Gaithersburg, MD, USA) for 15 min. The cell homogenate was then cultured in M-CSF (20 ng/mL, R&D Systems) supplemented with DMEM-F12 medium containing 10% fetal bovine serum, 10% horse serum, 1% GlutaMAX (Gibco, MD, USA), and 1% penicillin/streptomycin (Welgene, Korea). After 10 days, microglia were purified by shaking at 260 rpm for 2 h.
Cytokine levels (TNF-α, IL-1β, and IL-6) were measured in the media of BV2 microglia and primary microglia treated with LPS (1 μg/mL) and human Aβ1-42 (5 μg/mL). […]

[3] = molecular target: T1, PPARα (Homo sapiens, UniProt Q07869); assay: GAL4-transactivation assay in HEK293A cells, PPARα; type: cell-based; conditions: GAL4 reporter, 24 h, compared with WY14643
T1 construct: expressed in transfected cells; host or cells: HEK293A
T1 sequence (Q07869 1-468): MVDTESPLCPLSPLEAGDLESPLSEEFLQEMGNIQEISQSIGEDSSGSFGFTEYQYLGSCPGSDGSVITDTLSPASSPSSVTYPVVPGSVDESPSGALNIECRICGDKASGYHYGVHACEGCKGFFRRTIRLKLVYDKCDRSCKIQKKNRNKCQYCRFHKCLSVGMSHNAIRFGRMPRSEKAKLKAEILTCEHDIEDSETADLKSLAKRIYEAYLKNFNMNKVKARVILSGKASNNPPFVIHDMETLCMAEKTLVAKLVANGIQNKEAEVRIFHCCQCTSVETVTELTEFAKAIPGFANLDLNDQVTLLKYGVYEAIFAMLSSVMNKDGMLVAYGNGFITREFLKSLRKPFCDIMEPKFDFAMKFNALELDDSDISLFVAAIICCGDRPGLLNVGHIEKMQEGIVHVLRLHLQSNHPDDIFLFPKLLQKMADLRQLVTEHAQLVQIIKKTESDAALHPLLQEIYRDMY
Description: A GAL4-transactivation assay experiment was performed to determine whether the drug was bound to the PPAR ligand binding site. HEK293A cells were transfected with GAL4-reporter plasmid and pGL4.74 (Promega, Madison, WI, USA) as an internal standard via electroporation using the Neon Transfection System (Invitrogen, Carlsbad, CA, USA). All vectors were kindly provided by Professor Kanno Yuichiro, Toho University, Japan. After overnight culture, cells were treated with DTMB and each positive control compound for 24 h. Cells were then harvested, resuspended in luciferase lysis buffer (Promega), and incubated on ice for 10 min. Cell debris was removed by centrifugation at 20,000×g, 4° C. for 10 min, and the supernatant was used for the luciferase assay. Luciferase activity was measured using the Dual Luciferase Reporter Assay System (Promega) according to the manufacturer's instructions. In the measurement experiment, firefly luciferase activity was normalized to Renilla luciferase activity. To investigate the concentration-dependent effect of DTMB drug, EC50 values were measured by treating various concentrations of DTMB.

[4] = test system: microglial cells isolated from mice; assay: Western blotting of NF-κB, NLRP-3 and ASC in primary microglia; type: cell-based, mouse; conditions: primary microglia treated with Aβ aggregates or LPS, Western blot
Description: To confirm the mechanism by which DTMB exerts its anti-inflammatory effect, microglial cells isolated from mice were treated with Aβ aggregates or LPS to induce an inflammatory response, and then DTMB was treated to determine the levels of NF-κB, NLRP-3, and ASC proteins by western blotting.
The cells were lysed with lysis buffer containing 50 mM Tris (pH 7.4), 140 mM NaCl, 5 mM EDTA, and protease inhibitor tablets, and then sonicated. The protein concentration of the lysate was determined using Bradford reagent (AMERSCO, MA, USA). Proteins were separated by sodium dodecyl sulfate (SDS) polyacrylamide gel electrophoresis, transferred to nitrocellulose membranes (Pall Corporation, New York, NY, USA), and incubated with blocking buffer (5% nonfat dry milk and 0.1% Tween 20 in TBS) for 30 min. Western blot analysis was performed using primary antibodies against NF-κB, NLRP3, and ASC (Cell Signaling Technology, Danvers, MA, USA). Secondary antibodies from rabbit (Promega), rat, and goat (Bethyl Laboratories) were used, and detection was performed using SUPEX ECL reagent (Neuronex, Korea) and ImageQuant LAS-4000 (GE Healthcare, MA, USA) according to the manufacturer's instructions. Integrated blot densities were quantified using ImageJ.

Q: `COc1ccc(-c2cc(=O)oc3c(C)c(OC(=O)[C@H](Cc4c[nH]c5ccccc45)NC(=O)OC(C)(C)C)ccc23)cc1` [DTMB, [4-(4-Methoxyphenyl)-8-methyl-2-oxochromen-7-yl](2S)-3-(1H-indol-3-yl)-2-[(2-methylpropan-2-yl)oxycarbonylamino]propanoate] was tested. Which “Cytotoxicity (MTT)” value [1] did it give?
A: no cytotoxicity

Q: And the “Level of IL-6” value [2]?
A: statistically significantly reduced

Q: What about the “Level of TNF-α” value [2] of the same molecule?
A: statistically significantly reduced

Q: And the “PPARα activation versus positive control” value [3]?
A: activated at a lower concentration than WY14643

Q: And the NF-κB protein level [4]?
A: reducing NF-κB

Q: And the NLRP3 protein level [4]?
A: reduced
